Tests used:
[1] = system: lambsquarters; experiment: Test Example 4: herbicidal effect by soil treatment (Table 19, symbol O); format: in vivo, lambsquarters (Chenopodium album); details: amount of applied herbicide 320 g/ha
Method in brief: (§1)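 Pre-emergence style soil spray: seeds under ~1.5 cm sterilized diluvial soil received a uniform coat of emulsion diluted to the predetermined herbicide amount. Greenhouse 25–30° C; readout at week three on previously defined criteria.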

[2] = system: Japanese bulrush; experiment: Test Example 1: herbicidal activity, application before weed generation under submerged conditions (Table 16, symbol B); format: in vivo, Japanese bulrush (Schoenoplectus juncoides); details: amount of applied herbicide 320 g/ha
Method in brief: (§2)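 Alluvial soil was flooded to 4 cm depth, weed seeds were sown mixed and 2.5-leaf rice seedlings were transplanted. On sowing day, the compound's emulsion, diluted in water to a set dose, was applied to the water surface. Plants grew at 25–30 °C and were scored 0–5 after three weeks.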

[3] = system: chickweed; experiment: Test Example 5: herbicidal effect by foliage application, plastic box (Table 20, symbol P); format: in vivo, common chickweed (Stellaria media)
Method in brief: (§3)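 Plants were sown into sterilized diluvial soil under about 1.5 cm cover and kept in a greenhouse at 25° C. to 30° C. Fourteen days on, foliage received an even spray of the diluted emulsion. Herbicidal or crop effect was judged three weeks afterwards.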

[4] = system: Japanese bulrush; experiment: Test Example 2: herbicidal activity, application during weed generation under submerged conditions (Table 17, symbol B); format: in vivo, Japanese bulrush (Schoenoplectus juncoides); details: AAH 320 g/ha; application during weed generation, submerged conditions
Method in brief: (§4)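 Steps: fill Wagner pots with alluvial soil; add water to give 4 cm depth; sow the species mixed; grow under glass at 25–30° C.; at 1–2 leaves apply water-diluted emulsion formulation to the water surface at a fixed herbicide amount; score after 3 weeks.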

[5] = system: velvetleaf; experiment: Test Example 4: herbicidal effect by soil treatment (Table 19, symbol M); format: in vivo, velvetleaf (Abutilon theophrasti); details: amount of applied herbicide 320 g/ha
Method in brief: as §1

[6] = system: Italian ryegrass; experiment: Test Example 4: herbicidal effect by soil treatment (Table 19, symbol K); format: in vivo, Italian ryegrass (Lolium multiflorum); details: amount of applied herbicide 320 g/ha
Method in brief: as §1

[7] = system: blackgrass; experiment: Test Example 5: herbicidal effect by foliage application, plastic box (Table 20, symbol J); format: in vivo, blackgrass (Alopecurus myosuroides)
Method in brief: as §3

[8] = system: Italian ryegrass; experiment: Test Example 5: herbicidal effect by foliage application, plastic box (Table 20, symbol K); format: in vivo, Italian ryegrass (Lolium multiflorum)
Method in brief: as §3

[9] = system: green foxtail; experiment: Test Example 5: herbicidal effect by foliage application, plastic box (Table 20, symbol G); format: in vivo, green foxtail (Setaria viridis)
Method in brief: as §3

[10] = system: oval-leafed pondweed; experiment: Test Example 2: herbicidal activity, application during weed generation under submerged conditions (Table 17, symbol C); format: in vivo, oval-leafed pondweed (Monochoria vaginalis); details: AAH 320 g/ha; application during weed generation, submerged conditions
Method in brief: as §4

[11] = system: velvetleaf; experiment: Test Example 5: herbicidal effect by foliage application, plastic box (Table 20, symbol M); format: in vivo, velvetleaf (Abutilon theophrasti)
Method in brief: as §3

[12] = system: windgrass; experiment: Test Example 5: herbicidal effect by foliage application, plastic box (Table 20, symbol L); format: in vivo, windgrass (Apera spica-venti)
Method in brief: as §3

[13] = system: blackgrass; experiment: Test Example 4: herbicidal effect by soil treatment (Table 19, symbol J); format: in vivo, blackgrass (Alopecurus myosuroides); details: amount of applied herbicide 320 g/ha
Method in brief: as §1

[14] = system: southern crabgrass; experiment: Test Example 5: herbicidal effect by foliage application, plastic box (Table 20, symbol F); format: in vivo, southern crabgrass (Digitaria ciliaris)
Method in brief: as §3

[15] = system: late watergrass; experiment: Test Example 1: herbicidal activity, application before weed generation under submerged conditions (Table 16, symbol A); format: in vivo, late watergrass (Echinochloa oryzicola); details: amount of applied herbicide 320 g/ha
Method in brief: as §2

[16] = system: redroot pigweed; experiment: Test Example 4: herbicidal effect by soil treatment (Table 19, symbol N); format: in vivo, redroot pigweed (Amaranthus retroflexus); details: amount of applied herbicide 320 g/ha
Method in brief: as §1

[17] = system: wild oat; experiment: Test Example 5: herbicidal effect by foliage application, plastic box (Table 20, symbol I); format: in vivo, wild oat (Avena fatua)
Method in brief: as §3

[18] = system: persian speedwell; experiment: Test Example 4: herbicidal effect by soil treatment (Table 19, symbol R); format: in vivo, Persian speedwell (Veronica persica); details: amount of applied herbicide 320 g/ha
Method in brief: as §1

[19] = system: green foxtail; experiment: Test Example 4: herbicidal effect by soil treatment (Table 19, symbol G); format: in vivo, green foxtail (Setaria viridis); details: amount of applied herbicide 320 g/ha
Method in brief: as §1

[20] = system: barnyard grass; experiment: Test Example 5: herbicidal effect by foliage application, plastic box (Table 20, symbol H); format: in vivo, barnyard grass (Echinochloa crus-galli)
Method in brief: as §3

[21] = system: wild oat; experiment: Test Example 4: herbicidal effect by soil treatment (Table 19, symbol I); format: in vivo, wild oat (Avena fatua); details: amount of applied herbicide 320 g/ha
Method in brief: as §1

[22] = foliage application, 320 g/ha, three weeks after application
[23] = 320 g/ha, foliage application after 14-day growth, evaluated three weeks after application
[24] = amount of applied herbicide 320 g/ha, foliage application after 14-day growth, evaluated three weeks after application

Cc1nn(C)c(=O)c(-c2c(-c3ccc4c(c3)OCCO4)sc3cc(F)ccc23)c1O [3-013]
herbicidal effect, O: lambsquarters [1]: 5 (Herbicidal rate of 90% or more (almost completely withered))
Herbicidal effect, B: Japanese bulrush [2]: 3 (Herbicidal rate of 40% or more and less than 70%)
P: chickweed, herbicidal effect grade [3, 22]: 5 (Herbicidal rate of 90% or more (almost completely withered))
herbicidal effect rating, B: Japanese bulrush [4]: 0 (Herbicidal rate of 5% or less (almost no effect))
herbicidal effect, M: velvetleaf [5]: 3 (Herbicidal rate of 40% or more and less than 70%)
herbicidal effect, K: Italian ryegrass [6]: 0 (Herbicidal rate of 5% or less (almost no effect))
J: blackgrass, herbicidal effect grade [7, 22]: 0 (Herbicidal rate of 5% or less (almost no effect))
K: Italian ryegrass, herbicidal effect grade [8, 22]: 1 (Herbicidal rate of 5% or more and less than 20%)
G: green foxtail, herbicidal effect grade [9, 22]: 4 (Herbicidal rate of 70% or more and less than 90%)
herbicidal effect rating, C: oval-leafed pondweed [10]: 3 (Herbicidal rate of 40% or more and less than 70%)
M: velvetleaf, herbicidal effect grade [11, 22]: 4 (Herbicidal rate of 70% or more and less than 90%)
L: windgrass, herbicidal effect grade [12, 22]: 0 (Herbicidal rate of 5% or less (almost no effect))
herbicidal effect, J: blackgrass [13]: 0 (Herbicidal rate of 5% or less (almost no effect))
F: southern crabgrass, herbicidal effect grade [14, 22]: 4 (Herbicidal rate of 70% or more and less than 90%)
Herbicidal effect, A: late watergrass [15]: 3 (Herbicidal rate of 40% or more and less than 70%)
herbicidal effect, N: redroot pigweed [16]: 4 (Herbicidal rate of 70% or more and less than 90%)
I: wild oat, herbicidal effect grade [17, 22]: 0 (Herbicidal rate of 5% or less (almost no effect))
herbicidal effect, R: persian speedwell [18]: 5 (Herbicidal rate of 90% or more (almost completely withered))
herbicidal effect, G: green foxtail [19]: 4 (Herbicidal rate of 70% or more and less than 90%)
H: barnyard grass, herbicidal effect grade [20, 22]: 3 (Herbicidal rate of 40% or more and less than 70%)
herbicidal effect, I: wild oat [21]: 0 (Herbicidal rate of 5% or less (almost no effect))

COc1ccccc1-c1sc2cc(SC)ccc2c1-c1c(O)c(C)nn(C)c1=O [3-163]
Herbicidal effect by soil treatment, O: lambsquarters [1]: 3 (Herbicidal rate of 40% or more and less than 70%)
Herbicidal effect, B: Japanese bulrush [2]: 3 (Herbicidal rate of 40% or more and less than 70%)
herbicidal effect on P: chickweed (evaluation grade 0-5) [3, 23]: 5 (Herbicidal rate of 90% or more (almost completely withered))
herbicidal effect rating, B: Japanese bulrush [4]: 0 (Herbicidal rate of 5% or less (almost no effect))
Herbicidal effect by soil treatment, M: velvetleaf [5]: 1 (Herbicidal rate of 5% or more and less than 20%)
Herbicidal effect by soil treatment, K: Italian ryegrass [6]: 3 (Herbicidal rate of 40% or more and less than 70%)
herbicidal effect on J: blackgrass (evaluation grade 0-5) [7, 23]: 5 (Herbicidal rate of 90% or more (almost completely withered))
herbicidal effect on K: Italian ryegrass (evaluation grade 0-5) [8, 23]: 4 (Herbicidal rate of 70% or more and less than 90%)
herbicidal effect on G: green foxtail (evaluation grade 0-5) [9, 23]: 5 (Herbicidal rate of 90% or more (almost completely withered))
herbicidal effect rating, C: oval-leafed pondweed [10]: 0 (Herbicidal rate of 5% or less (almost no effect))
herbicidal effect on M: velvetleaf (evaluation grade 0-5) [11, 23]: 5 (Herbicidal rate of 90% or more (almost completely withered))
herbicidal effect on L: windgrass (evaluation grade 0-5) [12, 23]: 5 (Herbicidal rate of 90% or more (almost completely withered))
Herbicidal effect by soil treatment, J: blackgrass [13]: 3 (Herbicidal rate of 40% or more and less than 70%)
herbicidal effect on F: southern crabgrass (evaluation grade 0-5) [14, 23]: 5 (Herbicidal rate of 90% or more (almost completely withered))
Herbicidal effect, A: late watergrass [15]: 3 (Herbicidal rate of 40% or more and less than 70%)
Herbicidal effect by soil treatment, N: redroot pigweed [16]: 5 (Herbicidal rate of 90% or more (almost completely withered))
herbicidal effect on I: wild oat (evaluation grade 0-5) [17, 23]: 5 (Herbicidal rate of 90% or more (almost completely withered))
Herbicidal effect by soil treatment, R: persian speedwell [18]: 3 (Herbicidal rate of 40% or more and less than 70%)
Herbicidal effect by soil treatment, G: green foxtail [19]: 3 (Herbicidal rate of 40% or more and less than 70%)
herbicidal effect on H: barnyard grass (evaluation grade 0-5) [20, 23]: 5 (Herbicidal rate of 90% or more (almost completely withered))
Herbicidal effect by soil treatment, I: wild oat [21]: 0 (Herbicidal rate of 5% or less (almost no effect))

Cc1nn(C)c(=O)c(-c2c(-c3ccc(Cl)cc3)sc3c(C)cccc23)c1O [4-102]
Herbicidal effect by soil treatment, O: lambsquarters [1]: 3 (Herbicidal rate of 40% or more and less than 70%)
Herbicidal effect, B: Japanese bulrush [2]: 0 (Herbicidal rate of 5% or less (almost no effect))
Herbicidal effect by foliage application, P: chickweed [3, 24]: 5 (Herbicidal rate of 90% or more (almost completely withered))
herbicidal effect rating, B: Japanese bulrush [4]: 0 (Herbicidal rate of 5% or less (almost no effect))
Herbicidal effect by soil treatment, M: velvetleaf [5]: 2 (Herbicidal rate of 20% or more and less than 40%)
Herbicidal effect by soil treatment, K: Italian ryegrass [6]: 3 (Herbicidal rate of 40% or more and less than 70%)
Herbicidal effect by foliage application, J: blackgrass [7, 24]: 0 (Herbicidal rate of 5% or less (almost no effect))
Herbicidal effect by foliage application, K: Italian ryegrass [8, 24]: 4 (Herbicidal rate of 70% or more and less than 90%)
Herbicidal effect by foliage application, G: green foxtail [9, 24]: 0 (Herbicidal rate of 5% or less (almost no effect))
herbicidal effect rating, C: oval-leafed pondweed [10]: 0 (Herbicidal rate of 5% or less (almost no effect))
Herbicidal effect by foliage application, M: velvetleaf [11, 24]: 5 (Herbicidal rate of 90% or more (almost completely withered))
Herbicidal effect by foliage application, L: windgrass [12, 24]: 0 (Herbicidal rate of 5% or less (almost no effect))
Herbicidal effect by soil treatment, J: blackgrass [13]: 0 (Herbicidal rate of 5% or less (almost no effect))
Herbicidal effect by foliage application, F: southern crabgrass [14, 24]: 0 (Herbicidal rate of 5% or less (almost no effect))
Herbicidal effect, A: late watergrass [15]: 4 (Herbicidal rate of 70% or more and less than 90%)
Herbicidal effect by soil treatment, N: redroot pigweed [16]: 4 (Herbicidal rate of 70% or more and less than 90%)
Herbicidal effect by foliage application, I: wild oat [17, 24]: 0 (Herbicidal rate of 5% or less (almost no effect))
Herbicidal effect by soil treatment, R: persian speedwell [18]: 0 (Herbicidal rate of 5% or less (almost no effect))
Herbicidal effect by soil treatment, G: green foxtail [19]: 0 (Herbicidal rate of 5% or less (almost no effect))
Herbicidal effect by foliage application, H: barnyard grass [20, 24]: 0 (Herbicidal rate of 5% or less (almost no effect))
Herbicidal effect by soil treatment, I: wild oat [21]: 0 (Herbicidal rate of 5% or less (almost no effect))
